Data as given in publication PMC10046369, “Low-Affinity/High-Selectivity Dopamine Transport Inhibition Sufficient to Rescue Cognitive Functions in the Aging Rat” (Biomolecules, 2023).

Tests used:
Assay in all cases: biochemical
Set-up in all cases: KINOMEscan competition binding panel, per cent of control
Conditions in all cases: read-out: %Ctrl @ 2800nM
[1] = target: T1, ABL1(H396P)-phosphorylated (Homo sapiens, UniProt P00519, H396P)
T1 construct: phosphorylated
In short: (§1)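 Values are expressed as percent of control, calculated as ((test − positive control)/(negative control − positive control)) × 100, so lower numbers mean stronger hits. Binding was measured by KINOMEscan competition assay in a 450-kinase human panel including disease mutants, using the contractor's validated protocol.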

ALK(L1196M) = ALK(L1196M) (Homo sapiens, UniProt Q9UM73, L1196M)
In short: as §1

CAMK1B = target: T2, CAMK1B (Homo sapiens, UniProt Q6P2M8)
T2 construct: gene PNCK
T2 sequence (Q6P2M8 whole entry): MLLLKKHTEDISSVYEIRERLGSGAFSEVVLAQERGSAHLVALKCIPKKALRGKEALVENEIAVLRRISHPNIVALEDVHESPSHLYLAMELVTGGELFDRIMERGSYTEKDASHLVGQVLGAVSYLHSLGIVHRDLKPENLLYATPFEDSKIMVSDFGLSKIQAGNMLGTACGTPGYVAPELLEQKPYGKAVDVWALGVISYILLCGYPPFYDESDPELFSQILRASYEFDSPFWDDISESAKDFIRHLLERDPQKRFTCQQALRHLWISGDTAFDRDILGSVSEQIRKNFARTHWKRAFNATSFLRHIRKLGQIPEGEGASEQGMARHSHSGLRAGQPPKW
In short: as §1

CDC2L1 = target: T3, CDC2L1 (Homo sapiens, UniProt P21127)
T3 construct: gene CDK11B
In short: as §1

CDK3 = CDK3 (Homo sapiens, UniProt Q00526)
Chain of CDK3 (Q00526 whole entry): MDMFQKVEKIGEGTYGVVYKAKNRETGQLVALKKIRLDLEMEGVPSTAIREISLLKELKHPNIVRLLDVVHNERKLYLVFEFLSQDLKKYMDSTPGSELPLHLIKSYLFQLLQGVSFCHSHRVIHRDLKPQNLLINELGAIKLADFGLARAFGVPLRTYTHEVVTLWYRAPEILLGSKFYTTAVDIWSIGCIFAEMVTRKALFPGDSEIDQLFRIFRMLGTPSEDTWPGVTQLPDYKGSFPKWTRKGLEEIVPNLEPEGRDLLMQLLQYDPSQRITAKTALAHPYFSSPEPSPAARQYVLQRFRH
In short: as §1

CDK5 = CDK5 (Homo sapiens, UniProt Q00535)
In short: as §1

CDKL1 = CDKL1 (Homo sapiens, UniProt Q00532)
In short: as §1

CDKL2 = CDKL2 (Homo sapiens, UniProt Q92772)
In short: as §1

CLK1 = CLK1 (Homo sapiens, UniProt P49759)
Chain of CLK1 (P49759 whole entry): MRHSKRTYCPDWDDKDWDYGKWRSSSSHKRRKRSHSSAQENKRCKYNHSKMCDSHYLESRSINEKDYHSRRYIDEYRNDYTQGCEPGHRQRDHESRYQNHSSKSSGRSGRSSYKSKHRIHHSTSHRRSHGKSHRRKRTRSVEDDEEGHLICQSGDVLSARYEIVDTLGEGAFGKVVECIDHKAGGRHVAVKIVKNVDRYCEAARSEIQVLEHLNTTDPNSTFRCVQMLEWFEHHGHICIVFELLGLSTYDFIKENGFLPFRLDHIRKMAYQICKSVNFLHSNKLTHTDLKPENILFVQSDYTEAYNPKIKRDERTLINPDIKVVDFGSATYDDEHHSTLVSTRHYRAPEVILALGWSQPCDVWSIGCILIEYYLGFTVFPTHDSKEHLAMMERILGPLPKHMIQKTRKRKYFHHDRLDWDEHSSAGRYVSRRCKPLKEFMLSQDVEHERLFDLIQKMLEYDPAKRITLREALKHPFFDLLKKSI
In short: as §1

EPHA8 = EPHA8 (Homo sapiens, UniProt P29322)
In short: as §1

ERK4 = target: T4, ERK4 (Homo sapiens, UniProt P31152)
T4 construct: gene MAPK4
In short: as §1

FLT3 = FLT3 (Homo sapiens, UniProt P36888)
In short: as §1

HCK = HCK (Homo sapiens, UniProt P08631)
In short: as §1

[2] = target: T5, JAK1(JH2domain-pseudokinase) (Homo sapiens, UniProt P23458)
T5 construct: JH2domain-pseudokinase
In short: as §1

LRRK2(G2019S) = LRRK2(G2019S) (Homo sapiens, UniProt Q5S007, G2019S)
Chain of LRRK2(G2019S) (Q5S007 whole entry G2019S): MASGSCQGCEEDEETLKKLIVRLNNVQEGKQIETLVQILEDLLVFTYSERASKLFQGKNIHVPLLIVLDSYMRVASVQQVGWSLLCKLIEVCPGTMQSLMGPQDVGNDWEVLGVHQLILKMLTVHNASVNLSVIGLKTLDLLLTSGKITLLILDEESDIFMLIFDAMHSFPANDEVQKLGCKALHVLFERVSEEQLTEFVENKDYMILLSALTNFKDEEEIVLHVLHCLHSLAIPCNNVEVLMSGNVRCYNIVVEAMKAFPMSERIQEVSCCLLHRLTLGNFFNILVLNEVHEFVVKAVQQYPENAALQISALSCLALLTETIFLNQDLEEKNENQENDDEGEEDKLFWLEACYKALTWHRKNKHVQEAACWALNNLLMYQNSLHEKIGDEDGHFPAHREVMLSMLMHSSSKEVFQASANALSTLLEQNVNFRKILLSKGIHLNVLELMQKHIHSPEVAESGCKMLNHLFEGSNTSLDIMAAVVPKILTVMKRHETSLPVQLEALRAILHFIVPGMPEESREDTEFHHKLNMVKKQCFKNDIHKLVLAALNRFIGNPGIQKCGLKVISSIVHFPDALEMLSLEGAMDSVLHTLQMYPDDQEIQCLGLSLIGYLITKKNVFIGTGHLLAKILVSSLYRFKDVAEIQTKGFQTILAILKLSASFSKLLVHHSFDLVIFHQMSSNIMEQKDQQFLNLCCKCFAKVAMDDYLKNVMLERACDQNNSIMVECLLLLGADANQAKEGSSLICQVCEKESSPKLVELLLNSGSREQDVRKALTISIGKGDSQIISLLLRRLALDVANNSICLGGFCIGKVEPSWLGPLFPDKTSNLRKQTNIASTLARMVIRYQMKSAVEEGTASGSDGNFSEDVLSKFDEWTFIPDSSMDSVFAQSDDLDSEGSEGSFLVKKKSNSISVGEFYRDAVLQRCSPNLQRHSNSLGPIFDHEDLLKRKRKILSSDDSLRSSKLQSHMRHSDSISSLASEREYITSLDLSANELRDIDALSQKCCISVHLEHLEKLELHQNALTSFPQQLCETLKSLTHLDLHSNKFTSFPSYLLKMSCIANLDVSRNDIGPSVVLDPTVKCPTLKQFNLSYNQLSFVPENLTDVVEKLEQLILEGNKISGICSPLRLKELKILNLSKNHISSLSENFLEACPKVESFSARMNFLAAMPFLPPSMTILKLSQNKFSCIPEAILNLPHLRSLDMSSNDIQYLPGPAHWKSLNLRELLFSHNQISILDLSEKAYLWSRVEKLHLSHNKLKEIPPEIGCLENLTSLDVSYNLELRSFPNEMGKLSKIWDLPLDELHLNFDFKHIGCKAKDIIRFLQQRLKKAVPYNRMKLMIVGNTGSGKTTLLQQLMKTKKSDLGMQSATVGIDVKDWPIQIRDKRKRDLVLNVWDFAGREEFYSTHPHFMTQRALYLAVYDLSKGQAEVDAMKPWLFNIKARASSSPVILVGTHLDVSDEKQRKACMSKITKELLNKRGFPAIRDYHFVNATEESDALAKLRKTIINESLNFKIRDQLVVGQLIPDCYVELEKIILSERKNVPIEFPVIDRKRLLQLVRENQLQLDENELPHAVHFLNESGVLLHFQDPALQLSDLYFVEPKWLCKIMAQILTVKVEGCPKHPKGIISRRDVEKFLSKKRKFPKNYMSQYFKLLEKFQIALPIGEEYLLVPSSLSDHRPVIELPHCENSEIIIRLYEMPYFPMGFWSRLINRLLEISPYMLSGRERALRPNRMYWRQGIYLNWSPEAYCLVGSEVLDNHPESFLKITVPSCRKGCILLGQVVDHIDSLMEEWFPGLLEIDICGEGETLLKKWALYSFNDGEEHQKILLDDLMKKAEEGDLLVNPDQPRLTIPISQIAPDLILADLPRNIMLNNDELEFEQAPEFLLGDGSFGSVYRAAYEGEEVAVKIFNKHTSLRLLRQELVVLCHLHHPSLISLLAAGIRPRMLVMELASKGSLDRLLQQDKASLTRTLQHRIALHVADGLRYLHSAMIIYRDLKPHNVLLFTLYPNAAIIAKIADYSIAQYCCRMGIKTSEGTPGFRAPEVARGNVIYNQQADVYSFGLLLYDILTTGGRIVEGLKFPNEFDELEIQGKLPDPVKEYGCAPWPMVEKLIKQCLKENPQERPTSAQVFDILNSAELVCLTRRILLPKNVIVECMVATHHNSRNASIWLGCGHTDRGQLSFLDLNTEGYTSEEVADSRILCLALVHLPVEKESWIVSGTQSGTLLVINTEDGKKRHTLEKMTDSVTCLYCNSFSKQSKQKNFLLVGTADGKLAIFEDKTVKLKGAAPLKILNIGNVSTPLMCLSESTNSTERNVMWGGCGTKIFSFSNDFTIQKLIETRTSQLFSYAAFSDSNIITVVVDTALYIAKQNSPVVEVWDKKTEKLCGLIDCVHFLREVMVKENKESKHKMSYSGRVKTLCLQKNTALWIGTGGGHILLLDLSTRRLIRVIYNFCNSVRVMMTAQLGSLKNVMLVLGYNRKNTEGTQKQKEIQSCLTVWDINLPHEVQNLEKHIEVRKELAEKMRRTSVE
In short: as §1

MLK1 = target: T6, MLK1 (Homo sapiens, UniProt P80192)
T6 construct: gene MAP3K9
In short: as §1

MLK2 = target: T7, MLK2 (Homo sapiens, UniProt Q02779)
T7 construct: gene MAP3K10
In short: as §1

NEK9 = NEK9 (Homo sapiens, UniProt Q8TD19)
In short: as §1

OSR1 = target: T8, OSR1 (Homo sapiens, UniProt O95747)
T8 construct: gene OXSR1
In short: as §1

PIK3CG = PIK3CG (Homo sapiens, UniProt P48736)
In short: as §1

PRKCH = PRKCH (Homo sapiens, UniProt P24723)
In short: as §1

PYK2 = target: T9, PYK2 (Homo sapiens, UniProt Q14289)
T9 construct: gene PTK2B
In short: as §1

[3] = target: T10, RPS6KA5(Kin.Dom.2-C-terminal) (Homo sapiens, UniProt O75582)
T10 construct: Kin.Dom.2-C-terminal
In short: as §1

[4] = target: T11, RSK3(Kin.Dom.2-C-terminal) (Homo sapiens, UniProt Q15349)
T11 construct: gene RPS6KA2; Kin.Dom.2-C-terminal
T11 sequence (Q15349 whole entry): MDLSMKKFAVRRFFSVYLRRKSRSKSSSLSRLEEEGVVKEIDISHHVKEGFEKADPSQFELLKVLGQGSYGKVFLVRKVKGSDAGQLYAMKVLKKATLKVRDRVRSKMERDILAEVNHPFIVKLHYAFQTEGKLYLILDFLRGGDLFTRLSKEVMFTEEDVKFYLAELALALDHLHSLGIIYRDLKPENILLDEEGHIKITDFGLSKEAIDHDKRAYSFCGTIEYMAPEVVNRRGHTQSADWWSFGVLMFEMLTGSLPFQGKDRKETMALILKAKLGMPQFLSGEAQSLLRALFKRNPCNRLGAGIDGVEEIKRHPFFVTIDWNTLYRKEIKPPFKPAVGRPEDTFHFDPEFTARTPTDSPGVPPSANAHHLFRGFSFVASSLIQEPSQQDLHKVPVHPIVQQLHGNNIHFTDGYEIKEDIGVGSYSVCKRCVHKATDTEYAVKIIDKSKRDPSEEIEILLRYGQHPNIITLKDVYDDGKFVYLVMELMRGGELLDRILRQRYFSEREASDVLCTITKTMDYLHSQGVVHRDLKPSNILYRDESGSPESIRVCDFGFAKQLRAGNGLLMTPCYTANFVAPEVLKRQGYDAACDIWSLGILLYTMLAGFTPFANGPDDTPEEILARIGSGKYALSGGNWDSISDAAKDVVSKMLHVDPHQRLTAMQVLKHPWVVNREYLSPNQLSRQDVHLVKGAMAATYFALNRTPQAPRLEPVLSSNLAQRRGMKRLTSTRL
In short: as §1

TAK1 = target: T12, TAK1 (Homo sapiens, UniProt O43318)
T12 construct: gene MAP3K7
T12 sequence (O43318 whole entry): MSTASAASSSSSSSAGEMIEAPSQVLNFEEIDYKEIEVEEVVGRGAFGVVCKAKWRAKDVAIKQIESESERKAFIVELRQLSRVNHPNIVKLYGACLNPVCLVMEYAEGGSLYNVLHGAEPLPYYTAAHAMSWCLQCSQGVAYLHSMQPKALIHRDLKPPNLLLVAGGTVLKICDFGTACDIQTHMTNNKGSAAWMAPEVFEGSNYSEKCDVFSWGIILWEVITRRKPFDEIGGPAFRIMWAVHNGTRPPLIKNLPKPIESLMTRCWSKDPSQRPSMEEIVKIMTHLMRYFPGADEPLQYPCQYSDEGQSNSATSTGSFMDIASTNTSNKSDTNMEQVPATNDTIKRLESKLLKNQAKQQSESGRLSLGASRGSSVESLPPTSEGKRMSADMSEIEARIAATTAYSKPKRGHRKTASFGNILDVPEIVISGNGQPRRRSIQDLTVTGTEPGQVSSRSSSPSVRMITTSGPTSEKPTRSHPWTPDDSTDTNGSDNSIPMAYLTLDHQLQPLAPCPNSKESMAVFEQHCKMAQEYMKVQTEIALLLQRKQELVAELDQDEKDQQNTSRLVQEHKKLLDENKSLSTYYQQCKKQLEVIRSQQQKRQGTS
In short: as §1

TLK2 = TLK2 (Homo sapiens, UniProt Q86UE8)
In short: as §1

With `[O-][S@@+](Cc1cncs1)C(c1ccccc1)c1ccccc1` [S-CE-123, (S)-5-((Benzhydrylsulfinyl)Methyl)Thiazole] the remaining binding at 2.8 µM [1] was 90%, the remaining binding at 2.8 µM (ALK(L1196M)) was 100% and the remaining binding at 2.8 µM (CAMK1B) was 100%. For the same molecule, the remaining binding at 2.8 µM (CDC2L1) was 95%, the remaining binding at 2.8 µM (CDK3) was 100% and the remaining binding at 2.8 µM (CDK5) was 97%. The remaining binding at 2.8 µM (CDKL1) was 100%, the remaining binding at 2.8 µM (CDKL2) was 89% and the remaining binding at 2.8 µM (CLK1) was 96%. For the same molecule, the remaining binding at 2.8 µM (EPHA8) was 100%, the remaining binding at 2.8 µM (ERK4) was 100% and the remaining binding at 2.8 µM (FLT3) was 96%. The remaining binding at 2.8 µM (HCK) was 99%, the remaining binding at 2.8 µM [2] was 92% and the remaining binding at 2.8 µM (LRRK2(G2019S)) was 96%. For the same molecule, the remaining binding at 2.8 µM (MLK1) was 100%, the remaining binding at 2.8 µM (MLK2) was 96% and the remaining binding at 2.8 µM (NEK9) was 100%. For the same molecule, the remaining binding at 2.8 µM (OSR1) was 90%, the remaining binding at 2.8 µM (PIK3CG) was 70% and the remaining binding at 2.8 µM (PRKCH) was 100%. For the same molecule, the remaining binding at 2.8 µM (PYK2) was 100%, the remaining binding at 2.8 µM [3] was 85% and the remaining binding at 2.8 µM [4] was 87%. For the same molecule, the remaining binding at 2.8 µM (TAK1) was 71% and the remaining binding at 2.8 µM (TLK2) was 95%.
